Laboratory results taken from the NIST ThermoML archive (doi:10.1021/je501161t).

Assay: mn = molality of the nth substance listed, in mol/kg
Details: 100 kPa, Liquid, Vibrating tube method

COS(=O)(=O)[O-].Cn1cc[n+](C)c1 [1,3-dimethylimidazolium methylsulfate] + O
mass density [kg/m3]
Details | m1 = 0.0333 | m1 = 0.052 | m1 = 0.0743 | m1 = 0.0945 | m1 = 0.1147 | m1 = 0.1309 | m1 = 0.1517 | m1 = 0.1791
288.15 K | 1000.78 | 1001.71 | 1002.81 | 1003.79 | 1004.77 | 1005.55 | 1006.54 | 1007.82
298.15 K | 998.673 | 999.578 | 1000.65 | 1001.61 | 1002.57 | 1003.33 | 1004.3 | 1005.56
308.15 K | 995.619 | 996.505 | 997.553 | 998.494 | 999.435 | 1000.18 | 1001.14 | 1002.38
318.15 K | 991.771 | 992.648 | 993.684 | 994.617 | 995.542 | 996.28 | 997.222 | 998.46

CCCCn1cc[n+](C)c1.[Br-] [1-butyl-3-methylimidazolium bromide] + O
mass density [kg/m3]
Details | m1 = 0.0317 | m1 = 0.0585 | m1 = 0.073 | m1 = 0.0916 | m1 = 0.114 | m1 = 0.1319 | m1 = 0.1508 | m1 = 0.1706 | m1 = 0.191
288.15 K | 1000.71 | 1002.05 | 1002.78 | 1003.7 | 1004.8 | 1005.69 | 1006.6 | 1007.56 | 1008.55
298.15 K | 998.612 | 999.924 | 1000.63 | 1001.53 | 1002.61 | 1003.47 | 1004.36 | 1005.3 | 1006.26
308.15 K | 995.556 | 996.84 | 997.535 | 998.413 | 999.47 | 1000.32 | 1001.19 | 1002.12 | 1003.07
318.15 K | 991.699 | 992.959 | 993.641 | 994.509 | 995.544 | 996.382 | 997.243 | 998.148 | 999.08

CCCCn1cc[n+](C)c1.[Cl-] [1-butyl-3-methylimidazolium chloride] + O
mass density [kg/m3]
Details | 288.15 K | 298.15 K | 308.15 K | 318.15 K
m1 = 0.0323 | 999.529 | 997.423 | 994.372 | 990.507
m1 = 0.0586 | 999.875 | 997.736 | 994.658 | 990.768
m1 = 0.0739 | 1000.08 | 997.92 | 994.834 | 990.922
m1 = 0.0899 | 1000.29 | 998.113 | 995.007 | 991.091
m1 = 0.1048 | 1000.49 | 998.297 | 995.182 | 991.26
m1 = 0.1254 | 1000.76 | 998.55 | 995.409 | 991.473
m1 = 0.1437 | 1001.01 | 998.776 | 995.622 | 991.68
m1 = 0.1687 | 1001.33 | 999.091 | 995.913 | 991.942
m1 = 0.1789 | 1001.47 | 999.214 | 996.039 | 992.06
m1 = 0.191 | 1001.63 | 999.373 | 996.185 | 992.216
m1 = 0.2204 | 1002.03 | 999.752 | 996.541 | 992.538

CCCCn1cc[n+](C)c1.F[B-](F)(F)F [1-butyl-3-methylimidazolium tetrafluoroborate] + O
mass density [kg/m3]
Details | m1 = 0.0311 | m1 = 0.0527 | m1 = 0.072 | m1 = 0.0904 | m1 = 0.1103 | m1 = 0.1326 | m1 = 0.1525 | m1 = 0.1788
288.15 K | 1000.38 | 1001.26 | 1002.03 | 1002.76 | 1003.54 | 1004.4 | 1005.17 | 1006.16
298.15 K | 998.274 | 999.116 | 999.86 | 1000.56 | 1001.31 | 1002.13 | 1002.86 | 1003.82
308.15 K | 995.194 | 995.999 | 996.713 | 997.385 | 998.11 | 998.921 | 999.635 | 1000.58
318.15 K | 991.332 | 992.114 | 992.809 | 993.467 | 994.171 | 994.948 | 995.643 | 996.555

CCOS(=O)(=O)[O-].CCn1cc[n+](C)c1 [1-ethyl-3-methylimidazolium ethyl sulfate] + O
mass density [kg/m3]
Details | m1 = 0.0313 | m1 = 0.0499 | m1 = 0.0682 | m1 = 0.0901 | m1 = 0.1095 | m1 = 0.1322
288.15 K | 1000.55 | 1001.4 | 1002.22 | 1003.21 | 1004.08 | 1005.09
298.15 K | 998.448 | 999.27 | 1000.07 | 1001.04 | 1001.87 | 1002.86
308.15 K | 995.398 | 996.212 | 996.995 | 997.93 | 998.762 | 999.712
318.15 K | 991.566 | 992.377 | 993.169 | 994.105 | 994.936 | 995.897

CCCCCCCCn1cc[n+](C)c1.[Br-] [1-methyl-3-octylimidazolium bromide] + O
mass density [kg/m3]
Details | m1 = 0.0323 | m1 = 0.0501 | m1 = 0.0722 | m1 = 0.0908 | m1 = 0.1112 | m1 = 0.1301 | m1 = 0.1485 | m1 = 0.1707 | m1 = 0.191
288.15 K | 1000.51 | 1001.28 | 1002.24 | 1003.03 | 1003.9 | 1004.69 | 1005.47 | 1006.39 | 1007.25
298.15 K | 998.383 | 999.121 | 1000.02 | 1000.77 | 1001.6 | 1002.36 | 1003.08 | 1003.99 | 1004.77
308.15 K | 995.284 | 995.975 | 996.827 | 997.539 | 998.314 | 999.033 | 999.725 | 1000.54 | 1001.3
318.15 K | 991.366 | 992.011 | 992.796 | 993.46 | 994.171 | 994.852 | 995.483 | 996.26 | 996.981

CCCCCCn1cc[n+](C)c1.[Br-] [3-hexyl-1-methyl-1H-imidazolium bromide] + O
mass density [kg/m3]
Details | m1 = 0.0314 | m1 = 0.0515 | m1 = 0.0703 | m1 = 0.0881 | m1 = 0.1098 | m1 = 0.131 | m1 = 0.1505 | m1 = 0.1711 | m1 = 0.1903
288.15 K | 1000.58 | 1001.52 | 1002.4 | 1003.23 | 1004.23 | 1005.18 | 1006.08 | 1007 | 1007.87
298.15 K | 998.466 | 999.368 | 1000.21 | 1001 | 1001.96 | 1002.88 | 1003.74 | 1004.64 | 1005.47
308.15 K | 995.404 | 996.284 | 997.097 | 997.858 | 998.787 | 999.688 | 1000.5 | 1001.4 | 1002.2
318.15 K | 991.535 | 992.389 | 993.185 | 993.932 | 994.837 | 995.704 | 996.521 | 997.358 | 998.139
